Test results reported in patent US9981956B2, “Small molecule inhibitors of fibrosis” (THE CALIFORNIA INSTITUTE FOR BIOMEDICAL RESEARCH, priority 2013, dated 2018).
Read-outs that look alike come from different tables or passages of the source.

Key:
[1] = test system: Candida albicans (ATCC 10231); assay: Candida albicans anti-fungal MIC potency determination; format: cell-based
Experimental: The wild type Candida albicans (ATCC 10231) was used and Fluconazole, amphotericin B, itraconazole and terbinafine were purchased from Sigma and used as positive controls.
The highest assay concentration for all test compounds and fluconazole was 100 μM. Fluconazole was also tested at the highest concentration of 64 μg/ml, and amphotercin B and terbinafine at 16 and 64 μg/ml. The test compounds were in DMSO stock solution at a concentration of 10 mM. Two stock solutions in DMSO were prepared for fluconazole at 10 mM and 6.4 mg/ml. Amphotericin B and terbinafine stock solutions in DMSO were prepared at 1.6 and 6.4 mg/ml.
Serial dilution of 100× stock solutions: 4 μl of stock solution was added into 196 μl of RPMI1640 (MOPS buffered and free of HEPES and sodium bicarbonate) in the first well of a row of a sterile u-bottom 96-well plate. The rest of the wells was filled with 100 μl RPMI1640. The 2-fold serial dilution was made sequentially by transferring 100 μl solution to the next well and mixing by pipetting, until 11th well. The extra 100 μl in 11th well was discarded. Therefore, the compound wells contained 100 μl of 2× of testing concentrations of drugs in RPMI1640. The 12th well was filled with only 100 μl RPMI1640.
C. albicans 3147 (ATCC 10231) glycerol frozen stock was streaked on Sabouraud dextrose agar (SDA). The plate was incubated at 35° C. ambient atmosphere for 20 h. Single colonies were suspended into sterile saline until turbidity reached 0.1 (1-5×10^6 CFU/ml) using a Siemens turbidity meter. This suspension was diluted 50× in RPMI1640 in a 15 ml conical, and then it was further diluted 20× in RPMI1640 in a 50 ml conical. This gave 1-5×10^3 CFU/ml suspension and was used as inoculum. The cell density in inoculum was plate-counted to be 4.94×10^3 CFU/ml.
The plates were incubated at 35° C. in ambient atmosphere. The photos were taken at 24 h and 48 h. The MIC end points for fluconazole and amphotericin B were read according to the M27-A3 protocol (Reference Method for Broth Dilution Antifungal Susceptibility Testing of Yeasts; Approved Standard-Third Edition, M27-A3 standard published Jan. 1, 2008 by Clinical and Laboratory Standards Institute). The MIC for compounds for test cmpds and terbinafine (not mentioned in M27-A3 protcol) were read as if they were azoles.

Cyp3A4 = Cyp3A4 (Homo sapiens, UniProt P08684); assay: Cyp time-dependent inhibition (TDI) assay (human liver microsomes); format: in vitro ADME; design: The TDI assay was generally performed in liver microsomes; from tissue; host or cells: human liver microsomes; settings: for IC50: human liver microsomes; for TDI ratio: (−) NADPH/(+) NADPH: IC50 shift, >1.5-fold considered positive for TDI
Sequence of Cyp3A4 (P08684 whole entry): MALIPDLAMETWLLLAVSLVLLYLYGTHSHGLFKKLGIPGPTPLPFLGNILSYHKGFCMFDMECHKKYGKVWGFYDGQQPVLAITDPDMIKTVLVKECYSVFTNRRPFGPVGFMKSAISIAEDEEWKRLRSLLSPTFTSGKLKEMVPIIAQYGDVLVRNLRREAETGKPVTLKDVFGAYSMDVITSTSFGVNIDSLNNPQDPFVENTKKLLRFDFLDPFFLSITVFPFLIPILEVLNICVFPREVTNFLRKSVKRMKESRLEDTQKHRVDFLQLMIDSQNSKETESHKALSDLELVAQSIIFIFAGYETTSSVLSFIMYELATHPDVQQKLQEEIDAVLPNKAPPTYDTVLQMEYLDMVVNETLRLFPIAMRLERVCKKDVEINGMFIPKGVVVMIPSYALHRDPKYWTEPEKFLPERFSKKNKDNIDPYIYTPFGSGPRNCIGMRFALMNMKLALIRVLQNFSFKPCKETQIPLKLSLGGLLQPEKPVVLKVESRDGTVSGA
Experimental: The data from this assay was used in conjunction to the reversible inhibition assay. […] Then both incubation sets were diluted with fresh assay buffer containing NADPH Cyp specific substrates (midazolam for Cyp3A4) and inhibition of midazolam hydroxylation was measured by LC-MS/MS (Q1/Q2=m/z 342.2/203.2).

PXR = molecular target: T1, PXR (Homo sapiens, UniProt O75469); assay: PXR (Cyp 3A4) activation assay in DPX2 cells; format: cell-based; settings: compounds tested at 10, 1 and 0.1 μM, read-out: PXR activation (fold induction compared to Rifampicin)
T1 construct: expressed in transfected cells; host or cells: DPX2 cells
T1 sequence (O75469 1-434): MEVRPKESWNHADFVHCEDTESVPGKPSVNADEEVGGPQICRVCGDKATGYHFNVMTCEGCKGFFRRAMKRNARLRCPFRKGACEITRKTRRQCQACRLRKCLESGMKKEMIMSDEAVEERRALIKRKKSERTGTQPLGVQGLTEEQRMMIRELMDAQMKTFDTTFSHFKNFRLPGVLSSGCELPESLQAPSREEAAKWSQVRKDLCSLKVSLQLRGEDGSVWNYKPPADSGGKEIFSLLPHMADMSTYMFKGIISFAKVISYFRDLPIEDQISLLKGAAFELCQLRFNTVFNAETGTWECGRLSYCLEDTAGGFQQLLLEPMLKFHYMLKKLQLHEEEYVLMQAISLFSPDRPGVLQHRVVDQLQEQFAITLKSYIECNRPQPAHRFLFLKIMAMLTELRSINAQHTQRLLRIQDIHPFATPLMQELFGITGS
Experimental: CYP3A4 metabolism was evaluated by using P450-Glo™ CYP3A4 Assay with Luciferin-IPA as the substrate of CYP3A4 and represented as RLU (Relative Luminescence Units). PXR activation was evaluated by using a luciferase detection reagent, ONE-Glo™ and represented as RLU. The luminescence light intensity was directly proportional to the extent of PXR activation and accompanying gene transcription in the DPX2 cells. Compounds were tested at 10, 1, and 0.1 μM in the assay. Fold of induction=(RLU/RFU of compound treated sample)/(RLU/RFU of vehicle treated sample), RFU was the signal of cell viability. RLU was the signal of CYP3A metabolism and PXR activation. 0.1% DMSO was used as vehicle. Cell viability was detected by using CellTiter-Fluor™ and represented as RFU (Relative Fluorescence Units).
Activation potency was defined as negative, weak, moderate and strong. Negative, weak, moderate and strong activators are those that give <15%, <40%, <69% and >70%, respectively, of the response produced by 10 μM RIF at 10 μM.

[2] = ATCC10231, 24 h, read-out: C. Albicans MIC90 at 24 h
[3] = ATCC10231, 48 h, read-out: C. Albicans MIC90 at 48 h
[4] = 20 min pre-incubation with NADPH, read-out: 3A4-Midazolam IC50 (+) NADPH
[5] = 20 min pre-incubation without NADPH, read-out: 3A4-Midazolam IC50 (−) NADPH

SMILES | MIC90 [1, 2] [µM] | MIC90 [1, 3] [µM] | IC50 (Cyp3A4; [4]) [µM] | IC50 (Cyp3A4; [5]) [µM] | TDI ratio: (−) NADPH/(+) NADPH (Cyp3A4) | fold induction (PXR)
CCC(C)n1ncn(-c2ccc(N3CCN(c4ccc(OC[C@@H]5CO[C@@](Cn6nccn6)(c6ccc(Cl)cc6Cl)O5)cc4)CC3)cc2)c1=O (stereo partly drawn) [Compound 15] | > 100 | > 100 | 41 | > 50 | ~1.2 (no TDI) | ~1
CCC(C)n1ncn(-c2ccc(N3CCN(c4ccc(OC[C@@H]5CO[C@@](Cc6ccnnc6)(c6ccc(Cl)cc6Cl)O5)cc4)CC3)cc2)c1=O (stereo partly drawn) [Compound 22] | > 100 | > 100 | > 50 | > 50 | ~1 (no TDI) | ~1.1
CCC(C)n1ncn(-c2ccc(N3CCN(c4ccc(OC[C@@H]5CO[C@@](Cn6nccn6)(c6ccccc6)O5)cc4)CC3)cc2)c1=O (stereo partly drawn) [Compound 42] | > 100 | > 100 | > 50 | > 50 | ~1 (no TDI) | ~1.5
